{"source": "BindingDB's records for patent US20240067631", "about": "(Cytokinetics, 2024)", "target": "Nicotinamide phosphoribosyltransferase (Homo sapiens, UniProt P43490)", "sequence (P43490 whole entry)": "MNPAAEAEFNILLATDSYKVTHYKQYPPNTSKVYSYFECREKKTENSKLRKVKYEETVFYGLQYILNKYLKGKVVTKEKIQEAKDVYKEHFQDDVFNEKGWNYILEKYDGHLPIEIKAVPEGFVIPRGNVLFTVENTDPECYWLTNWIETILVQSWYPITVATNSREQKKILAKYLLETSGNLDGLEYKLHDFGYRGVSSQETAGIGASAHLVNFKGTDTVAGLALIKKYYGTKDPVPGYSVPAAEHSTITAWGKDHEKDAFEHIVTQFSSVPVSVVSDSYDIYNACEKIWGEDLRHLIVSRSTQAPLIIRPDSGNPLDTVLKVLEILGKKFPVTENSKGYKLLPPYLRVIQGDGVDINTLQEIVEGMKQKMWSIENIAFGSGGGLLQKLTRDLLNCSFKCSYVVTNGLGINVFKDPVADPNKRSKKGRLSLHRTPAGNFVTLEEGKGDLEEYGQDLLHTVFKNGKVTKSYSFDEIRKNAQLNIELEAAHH", "assay": "NMN Fluorescence Biochemical Assay", "method": "Human Recombinant Enzyme Assay: Compounds described herein were assayed for their ability to stimulate the synthesis of nicotinamide mononucleotide (NMN) by the enzyme NAMPT. The human recombinant enzyme assay measures the activation of the enzyme activity by compounds using recombinant enzyme and substrates in a buffered cell-free system. The assay conditions closely mimic cellular environments. Dose responses were measured using an assay to detect the formation of nicotinamide mono-nucleotide. All experiments were performed in the 384-well format. Generally, 0.5 μL of DMSO containing varying concentrations of the test compound was mixed with 10 μL of the enzyme reagent solution. Enzyme reactions were initiated with the addition of 10 μL of a solution containing the substrates. The final assay conditions were as follows: 6 nM human NAMPT, 2.5 mM ATP, […] in 50 mM HEPES, pH 7.2, 1 mM DTT, 1 mM CHAPS 50 mM NaCl, 100 mM MgCl2. Following an incubation of 60 min at ambient temperature, 10 μL of 20% acetophenone in DMSO was added, followed by 10 μL of 2 M KOH and 40 μL of formic acid. The plates were read for fluorescence (Excitation/Emission=355 nm/460 nm) using an EnVision plate reader after 40 mins of incubation at ambient temperature. […]", "data": [{"molecule": "Cc1nc(C(=O)N2CCN(Cc3ccccc3)C(=O)C2)nc(NCCc2cn[nH]c2)c1C", "note": "[US20240067631, Compound 45]", "values": [{"measurement": "EC50", "value": 3.52, "unit": "µM"}]}, {"molecule": "Cc1ccc([C@@H](C)NC(=O)c2nc(C)c(C)c(NCCc3cn[nH]c3)n2)o1", "note": "[US20240067631, Compound 101]", "values": [{"measurement": "EC50", "value": 4.09, "unit": "µM"}]}]}
